The record followed here is ChEMBL document CHEMBL2413025, “Synthesis, biological activity and molecular modeling studies on 1H-benzimidazole derivatives as acetylcholinesterase inhibitors” (Bioorg Med Chem, 2013).

The target of assay [1] is Acetylcholinesterase (Homo sapiens, UniProt P22303). In words: Inhibition of recombinant human AChE using acetylthiocholine iodide as substrate preincubated for 5 mins before substrate addition by Ellman's method.
For assay [2], the target named is Cholinesterase (Equus caballus, UniProt P81908).
Sequence of Cholinesterase (P81908 whole entry): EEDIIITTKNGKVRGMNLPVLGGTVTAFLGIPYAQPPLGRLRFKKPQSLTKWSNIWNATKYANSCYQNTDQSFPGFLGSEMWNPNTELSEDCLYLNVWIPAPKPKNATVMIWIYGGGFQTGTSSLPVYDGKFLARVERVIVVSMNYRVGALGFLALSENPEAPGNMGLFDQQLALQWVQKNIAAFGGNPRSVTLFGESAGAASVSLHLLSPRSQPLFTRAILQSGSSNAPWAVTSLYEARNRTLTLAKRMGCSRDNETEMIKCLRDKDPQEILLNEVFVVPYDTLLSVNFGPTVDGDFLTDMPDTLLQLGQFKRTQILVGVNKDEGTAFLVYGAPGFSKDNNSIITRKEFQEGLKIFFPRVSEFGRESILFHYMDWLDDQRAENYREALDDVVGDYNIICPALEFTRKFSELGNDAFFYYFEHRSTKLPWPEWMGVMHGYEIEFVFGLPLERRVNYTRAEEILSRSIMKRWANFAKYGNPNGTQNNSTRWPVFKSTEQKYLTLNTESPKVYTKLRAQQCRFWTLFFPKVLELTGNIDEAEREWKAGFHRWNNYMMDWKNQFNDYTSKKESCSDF
Description: Inhibition of horse serum BChE using acetylthiocholine iodide as substrate preincubated for 5 mins before substrate addition by Ellman's method
The target in assay [3] is Acetylcholinesterase (Electrophorus electricus, UniProt O42275).
Sequence of Acetylcholinesterase (Electrophorus electricus, UniProt O42275) (O42275 whole entry): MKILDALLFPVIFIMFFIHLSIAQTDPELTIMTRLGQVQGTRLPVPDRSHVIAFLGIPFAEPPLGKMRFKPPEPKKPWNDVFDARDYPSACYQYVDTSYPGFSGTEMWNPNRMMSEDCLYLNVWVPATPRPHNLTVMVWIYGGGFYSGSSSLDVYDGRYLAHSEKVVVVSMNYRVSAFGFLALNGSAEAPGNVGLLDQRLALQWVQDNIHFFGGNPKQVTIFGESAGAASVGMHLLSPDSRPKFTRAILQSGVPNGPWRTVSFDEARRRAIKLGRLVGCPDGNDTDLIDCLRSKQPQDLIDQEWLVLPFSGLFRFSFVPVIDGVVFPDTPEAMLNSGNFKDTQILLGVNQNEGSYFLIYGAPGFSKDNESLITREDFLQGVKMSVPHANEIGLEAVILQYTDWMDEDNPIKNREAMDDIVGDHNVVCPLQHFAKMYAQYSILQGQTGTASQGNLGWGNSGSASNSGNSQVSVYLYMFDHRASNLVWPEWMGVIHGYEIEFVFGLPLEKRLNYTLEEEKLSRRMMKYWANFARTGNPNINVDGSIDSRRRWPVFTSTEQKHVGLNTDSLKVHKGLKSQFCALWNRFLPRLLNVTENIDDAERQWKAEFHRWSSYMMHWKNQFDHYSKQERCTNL
Description: Inhibition of electric eel AChE using acetylthiocholine iodide as substrate preincubated for 5 mins before substrate addition by Ellman's method
The nature of assay [4]: Selectivity ratio of IC50 for horse serum BChE to IC50 for electric eel AChE.

Sequence of Acetylcholinesterase (Homo sapiens, UniProt P22303) (P22303 whole entry): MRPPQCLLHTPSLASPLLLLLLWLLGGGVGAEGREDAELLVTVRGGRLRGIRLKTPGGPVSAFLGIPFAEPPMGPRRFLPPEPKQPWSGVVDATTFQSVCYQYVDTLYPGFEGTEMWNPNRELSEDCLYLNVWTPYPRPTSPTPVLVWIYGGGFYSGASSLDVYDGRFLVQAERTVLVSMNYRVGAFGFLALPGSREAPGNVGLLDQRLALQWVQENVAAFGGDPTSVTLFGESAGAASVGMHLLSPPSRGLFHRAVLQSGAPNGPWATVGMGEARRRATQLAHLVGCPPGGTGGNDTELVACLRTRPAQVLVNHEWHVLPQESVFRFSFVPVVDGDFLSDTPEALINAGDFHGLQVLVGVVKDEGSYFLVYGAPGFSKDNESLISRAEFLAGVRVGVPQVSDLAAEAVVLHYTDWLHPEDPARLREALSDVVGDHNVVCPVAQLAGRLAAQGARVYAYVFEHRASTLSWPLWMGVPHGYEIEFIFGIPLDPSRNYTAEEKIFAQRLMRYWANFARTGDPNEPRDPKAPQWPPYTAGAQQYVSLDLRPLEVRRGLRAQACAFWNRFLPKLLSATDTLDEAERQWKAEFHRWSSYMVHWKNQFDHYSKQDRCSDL

Usually IC50 stands for the concentration at which inhibition is half-maximal. As for `c1ccc2[nH]c(-c3ccc(OCCN4CCOCC4)cc3)nc2c1`, the results for the half-inhibitory concentration (IC50) in assay [1], in assay [2] and in assay [3] were above 100 µM, above 100 µM and 18.8 µM, respectively.

For `c1ccc2[nH]c(-c3ccc(OCCN4CCCC4)cc3)nc2c1`, the Ratio IC50 in assay [4] worked out at 7.6. The IC50 was 2.13 µM in assay [1], 23 µM in assay [2] and 3.05 µM in assay [3].

Take `Cc1ccc2[nH]c(-c3ccc(O)cc3)nc2c1`: the Ratio IC50 in assay [4] worked out at 0.3. For the same molecule, the IC50 was above 100 µM in assay [1], 4.67 µM in assay [2] and 15.9 µM in assay [3].

With `Oc1ccc(-c2nc3cc(Cl)ccc3[nH]2)cc1`, in assay [4], the Ratio IC50 came out at 0.6. For the same molecule, the IC50 in assay [1] was above 100 µM; in assay [2], 8.52 µM; in assay [3], 14.6 µM.

Take `CCN(CC)CCOc1ccc(-c2nc3cc(Cl)ccc3[nH]2)cc1`: the concentration for half-maximal inhibition (IC50) in assay [1] was 8.75 µM; in assay [2], above 100 µM; in assay [3], 3.5 µM.

Take `c1ccc2[nH]c(-c3ccc(OCCN4CCCCC4)cc3)nc2c1`: the Ratio IC50 in assay [4] came to 2.3. In addition, the 50% inhibitory concentration (IC50) in assay [1] was determined as 1.03 µM; in assay [2] it was 2.45 µM; in assay [3] it was 1.08 µM.

Take `CC(C)N(CCOc1ccc(-c2nc3ccccc3[nH]2)cc1)C(C)C`: the Ratio IC50 in assay [4] turned out to be 3.5. Further, the figures for the half-inhibitory concentration (IC50) in assay [1], in assay [2] and in assay [3] were 23.4 µM, 4.11 µM and 1.19 µM, respectively.

With `CCN(CC)CCOc1ccc(-c2nc3ccc(C)cc3[nH]2)cc1`, the concentration for half-maximal inhibition (IC50) in assay [1] worked out at 51 µM; in assay [2] it was 6.48 µM; in assay [3], 2.34 µM.

On to `CCN(CC)CCOc1ccc(-c2nc3cc(C)ccc3[nH]2)cc1`, for which the Ratio IC50 in assay [4] is 2.8.

Regarding `Cc1ccc2[nH]c(-c3ccc(OCCN4CCCC4)cc3)nc2c1`, the Ratio IC50 in assay [4] worked out at 2.4. Further, the 50% inhibitory concentration (IC50) came out at 0.4 µM in assay [1], 3.24 µM in assay [2] and 1.34 µM in assay [3].

Regarding `CC(C)N(CCOc1ccc(-c2nc3ccc(Cl)cc3[nH]2)cc1)C(C)C`, the 50% inhibitory concentration (IC50) is 3.68 µM in assay [1], 7.44 µM in assay [2] and 0.58 µM in assay [3].

On to `CN(C)CCOc1ccc(-c2nc3ccc(Cl)cc3[nH]2)cc1`, for which the concentration for half-maximal inhibition (IC50) in assay [1] was 8.02 µM; in assay [2] it was above 100 µM; in assay [3] it was 2.68 µM.

In the case of `CN(C)CCOc1ccc(-c2nc3ccccc3[nH]2)cc1`, in assay [4], the Ratio IC50 was 0.4. For the same molecule, the results for the IC50 in assay [1], in assay [2] and in assay [3] were 10.7 µM, 5.87 µM and 13.1 µM, respectively.

For `CCN(CC)CCOc1ccc(-c2nc3ccccc3[nH]2)cc1`, the Ratio IC50 in assay [4] stood at 0.3. The values for the IC50 in assay [1], in assay [2] and in assay [3] were above 100 µM, 5.06 µM and 15.6 µM, respectively.

`Cc1ccc2[nH]c(-c3ccc(OCCN(C)C)cc3)nc2c1`: the results for the half-inhibitory concentration (IC50) in assay [1], in assay [2] and in assay [3] were 12.3 µM, above 100 µM and 5.06 µM, respectively.

For `Clc1ccc2[nH]c(-c3ccc(OCCN4CCCC4)cc3)nc2c1`, the Ratio IC50 in assay [4] was 1.1. Besides, the half-inhibitory concentration (IC50) in assay [1] was determined as 1.4 µM; in assay [2], 3.42 µM; in assay [3], 3.24 µM.

Take `Clc1ccc2[nH]c(-c3ccc(OCCN4CCOCC4)cc3)nc2c1`: the IC50 in assay [1] was 9.73 µM; in assay [2] it was above 100 µM; in assay [3] it was 11.1 µM.

Regarding `Oc1ccc(-c2nc3ccccc3[nH]2)cc1`, the Ratio IC50 in assay [4] is 0.3. The 50% inhibitory concentration (IC50) in assay [1] was above 100 µM; in assay [2] it was 4.59 µM; in assay [3] it was 17.3 µM.

On to `Clc1ccc2nc(-c3ccc(OCCN4CCCCC4)cc3)[nH]c2c1`, for which the concentration for half-maximal inhibition (IC50) is 0.13 µM in assay [1], above 100 µM in assay [2] and 0.61 µM in assay [3].

As for `Cc1ccc2[nH]c(-c3ccc(OCCN4CCCCC4)cc3)nc2c1`, the Ratio IC50 in assay [4] was determined as 1.6. For the same molecule, the values for the IC50 in assay [1], in assay [2] and in assay [3] were 0.39 µM, 1.37 µM and 0.84 µM, respectively.

For `CC(C)N(CCOc1ccc(-c2nc3cc(Cl)ccc3[nH]2)cc1)C(C)C`, in assay [4], the Ratio IC50 came out at 12.8.

`Cc1ccc2[nH]c(-c3ccc(OCCN4CCOCC4)cc3)nc2c1`: the half-maximal inhibitory concentration (IC50) in assay [1] was 12.9 µM; in assay [2], above 100 µM; in assay [3] it was above 100 µM.
